{"source": "paper PMC5874716", "about": "“Antimicrobial Peptides for Topical Treatment of Osteomyelitis and Implant-Related Infections: Study in the Spongy Bone” (Pharmaceuticals, 2018)", "key": {"Micrococcus luteus": {"system": "Micrococcus luteus", "assay": "Drop diffusion test", "assay_type": "cell-based", "settings": "RP-HPLC peak of bone marrow extract containing the three defensins; not shown", "text": "In several cases when an all-D isomeric peptide alone, or in combination with its parent L-isomer in a 1:4 ratio in the blend with the carrier were applied to the infected hole, we observed a zero microbial count. We suppose that the contribution of D-isomeric peptides (II, VII, X, XII) to bacterial eradication was due to their resistance to proteases either exerted by bacteria or originated from the cells of the bone tissue. In these cases, we detected intact all-D peptide in the extract of the fillings (recovered from the infected hole after completing the experiment) by Reversed-Phase (RP)-HPLC analysis (not shown). On the other hand, the RP-HPLC analyses of the extracts of the fillings containing solely L-peptides indicated partial to complete digestion of peptides by proteases. Nevertheless, we assume that in all cases presented in Table 3 and Figure 2, it was the fast killing effect of AMPs on bacteria that played a conclusive role in eradicating the infection in the bone samples. When carrying out the experiments, we had to take into account that the bacterial load in an infected hole also could be reduced by components of the bone marrow immune system, including blood cells such as neutrophils. […] In one of the RP-HPLC peaks, we detected by mass spectrometry the presence of three human α-defensins HNP1, HNP2, and HNP3 [32] […]"}, "[1]": {"system": "C. albicans ATCC MYA-2876", "assay": "Biofilm formation on bone cement (Palacos r) model implants in infected femur head", "design": "species or system Candida albicans", "settings": "microbes infiltrated from a hole between implants, 2 days, single experiment", "text": "(§1) The poly(methyl methacrylate)-based bone cement with or without AMPs was implanted either inside infected holes or inside non-infected holes. In the latter case, the microbes infiltrated towards the implant from a hole made between them at roughly equal distance from each (Figure 3). This would simulate the authentic situation in which the pathogens can infect an orthopaedic implant by spreading through the bloodstream or contiguously from areas of infection. We evaluated the experiments on the basis of the amounts of microbes released from the biofilms supposedly formed on the surfaces of the implants that were removed from the infected bone samples.\n(§2) The bone samples with bored holes inside were prepared and handled as above. The bone cement (Palacos®r, Hereaus Medical GmbH, Wehrheim, Germany) with AMP incorporated was prepared by swift and thorough mixing of the polymer powder component (poly-methylacrylate, methyl methacrylate, 125 mg) and AMP (10 mg) or antibiotic (10 mg) with the liquid monomer (methyl methacrylate, N,N-dimethyl-p-toluidine, hydroquinone and colorant E141, 70 μL). The resulting elastic paste was pressed using a 2 mL plastic syringe into two bored holes, where it polymerized and solidified. The paste without peptide for filling of the remaining two holes was prepared similarly by mixing the powder component (125 mg) and liquid component (68 μL). […]"}, "C. glabrata DSY565": {"system": "C. glabrata DSY565", "assay": "Biofilm formation on bone cement (Palacos r) model implants in infected femur head", "design": "species or system Candida glabrata", "settings": "microbes infiltrated from a hole between implants; 2 days; single experiment", "text": "as §1, §2"}, "Candida albicans": {"system": "Candida albicans", "assay_type": "cell-based", "settings": "Bioscreen C; at least three times in duplicates", "experimental": "(§3) Femur heads (ca. 70 pieces) taken from patients during hip replacement surgery were periodically purchased in the period between 2014–2017 as discarded from the bone tissue bank at University Hospital in Motol, Prague, Czech Republic. The reason for the replacements by artificial prosthesis was the worn out cartilage on the surface of their heads. Bone samples were stored at −80 °C under standard conditions of certified tissue banks. In the laboratory, they were kept at +5 °C overnight and then at room temperature for several hours before they could be used for the experiments. The experiments with this material were approved by the Ethics Committee for Multi-Centric Clinical Trials of the University Hospital Motol, Reference No: EK-655/15. Methicillin-resistant S. aureus (MRSA 6271) ATCC 43300 and P. aeruginosa (5482) ATCC 27853 were purchased from the Czech National Collection of Type Cultures, National Institute of Public Health, Prague, Czech Republic. Methicillin-resistant S. aureus (MRSA (L)) and P. aeruginosa (L) were obtained as multi-resistant clinical isolates from Liberec Regional Hospital, Liberec, Czech Republic. Methicillin-resistant S. aureus (MRSA (M)), E. faecalis and S. epidermidis were obtained as clinical isolates from University Hospital in Motol, Prague. Candida albicans (F7-39/IDE99) came from the mycological collection of the Faculty of Medicine, Palacky University, Olomouc, Czech Republic. C. albicans ATCC MYA-2876, C. tropicalis ATCC 750 and C. glabrata DSY565 were kindly provided by Dr. Hana Sychrová from the Institute of Physiology, Academy of Sciences of the Czech Republic, Prague. Vancomycin hydrochloride, gentamicin sulfate, ceftriaxone disodium salt, amphotericin B, fluconazole, and clotrimazole were obtained from Sigma-Aldrich, Prague, Czech Republic.\n(§4) MIC values for peptides were established by observing growth of treated bacteria in HONEYCOMB 100-well microtiter plates (Helsinki, Finland) using a Bioscreen C instrument (Oy Growth Curves, Helsinki, Finland) as previously described. Haemolytic activity of peptides expressed as the concentration of a peptide required for lysis of 50% of human erythrocytes in the assay (LC50) was measured using a Tecan infinite M200 PRO reader (Tecan Austria GmbH, Grödig, Austria). Blood samples for determining haemolytic activity were obtained from healthy volunteers."}, "human erythrocytes": {"system": "human erythrocytes", "assay": "Haemolysis assay", "assay_type": "cell-based", "settings": "concentration causing lysis of 50% of human red blood cells; at least three times in duplicates", "experimental": "as §4"}, "[2]": {"system": "S. epidermidis clinical isolate (Motol)", "assay": "microbe, parasite or virus in culture", "assay_type": "cell-based", "settings": "clinical isolate Motol; Bioscreen C; at least three times in duplicates", "experimental": "as §3, §4"}, "[3]": {"system": "P. aeruginosa clinical isolate from Liberec Regional Hospital", "assay": "microbe, parasite or virus in culture", "assay_type": "cell-based", "settings": "clinical isolate Liberec; Bioscreen C; at least three times in duplicates", "experimental": "as §3, §4"}, "[4]": {"system": "P. aeruginosa (5482) ATCC 27853", "assay": "microbe, parasite or virus in culture", "assay_type": "cell-based", "settings": "Bioscreen C; at least three times in duplicates", "experimental": "as §3, §4"}, "[5]": {"system": "E. faecalis clinical isolate (Motol)", "assay": "microbe, parasite or virus in culture", "assay_type": "cell-based", "settings": "clinical isolate Motol; Bioscreen C; at least three times in duplicates", "experimental": "as §3, §4"}, "MRSA 6271 (ATCC 43300)": {"system": "MRSA 6271 (ATCC 43300)", "assay": "microbe, parasite or virus in culture", "assay_type": "cell-based", "settings": "growth in 100-well microtiter plates, Bioscreen C; tested at least three times in duplicates", "experimental": "as §3, §4"}, "[6]": {"system": "MRSA clinical isolate from University Hospital in Motol (MRSA (M))", "assay": "microbe, parasite or virus in culture", "assay_type": "cell-based", "settings": "clinical isolate Motol; Bioscreen C; at least three times in duplicates", "experimental": "as §3, §4"}, "[7]": {"system": "MRSA clinical isolate from Liberec Regional Hospital (MRSA (L))", "assay": "microbe, parasite or virus in culture", "assay_type": "cell-based", "settings": "clinical isolate Liberec; Bioscreen C; at least three times in duplicates", "experimental": "as §3, §4"}, "P. aeruginosa 5482": {"system": "P. aeruginosa 5482", "assay": "Experimental model of bone infection (human femur head, ChronOS Inject carrier)", "design": "species or system Pseudomonas aeruginosa", "settings": "ChronOS Inject 200 mg blended with 10 mg peptide; 2 days at room temperature; single experiment on one femoral head", "experimental": "We usually drilled three to four holes into the spongy part of each bone sample (as space allowed) and then filled the holes with the suspension of microbes (Figure 1a). The next day, the foci of the infection set up in the holes were treated (i) with carrier alone as a control, (ii) with carrier blended with AMP, or (iii) in some cases with a carrier blended with an antibiotic for comparison (Figure 1b). The results of infection eradication were evaluated after two days by counting the bacterial colonies (Figures S1–S3 as illustrative examples) found in the swab taken from each hole after the fillings were removed (Figure 1c).\nThree to four holes ca 4 mm in diameter and 8 mm deep were drilled using a surgical spoon at the side of the resection into the spongy part of the femur head. This bone was placed into a beaker cushioned with sterile gauze, which was then drenched with sterile physiological solution. The suspension of selected bacteria (S. aureus, S. epidermidis, P. aeruginosa) in the concentration of 10^9 colony forming units (CFU)/mL in Luria Bertani (LB) medium and E. faecalis in brain-heart infusion (BHI) medium was consecutively infused into each hole in the bone while taking care not to overfill the holes (Figure 1a). […] Following overnight incubation, the numbers of bacterial colonies were counted. The bacterial load was expressed as CFU per hole. […]"}}, "note": "Non-standard residues stand in square brackets, D forms with d. Residues, ends and D or L forms follow the SMILES beside them. βAla = NCCC(=O)O", "data": [{"compound": "CYCRIPACIAGERRYGTCIYQGRLWAFCC [HNP2, human α-defensin detected in bone marrow extract of the femur head]", "values": [{"measurement": "antimicrobial activity in drop diffusion tests", "setting": "Micrococcus luteus", "value": "exhibited antimicrobial activity"}]}, {"compound": "OC(Cn1cncn1)(Cn1cncn1)c1ccc(F)cc1F", "note": "[Fluconazole, fluconazole, reference compound]", "values": [{"measurement": "CFU/Implant, C. albicans c", "setting": "[1]", "value": "3.6 × 10^4 CFU/implant"}]}, {"compound": "CC[C@H](C)[C@H](NC(=O)[C@H](CCCCN)NC(=O)[C@H](CCCCN)NC(=O)[C@@H](CC(C)C)NC(=O)[C@H](CC(C)C)NC(=O)[C@H](CCCCN)NC(=O)[C@H](CCSC)NC(=O)[C@H](Cc1c[nH]c2ccccc12)NC(=O)[C@H](CCCCN)NC(=O)CN)C(=O)N[C@@H](CC(C)C)C(=O)N[C@@H](CCCCN)C(N)=O", "note": "[VIII] (H-GKWMKL[dL]KKILK-NH2; N-terminus assumed)", "values": [{"measurement": "CFU/Implant, C. glabrata", "setting": "C. glabrata DSY565", "value": "2.4 × 10^3 CFU/implant"}, {"measurement": "Antimicrobial Activity MIC, C. a.", "setting": "Candida albicans", "value": 8.0, "unit": "µM"}, {"measurement": "Haemolytic Activity LC50", "setting": "human erythrocytes", "value": ">400", "unit": "µM"}, {"measurement": "Antimicrobial Activity MIC, S. e. b", "setting": "[2]", "value": 4.0, "unit": "µM"}, {"measurement": "Antimicrobial Activity MIC, P. a. a", "setting": "[3]", "value": 32.0, "unit": "µM"}, {"measurement": "Antimicrobial Activity MIC, P. a. 5482", "setting": "[4]", "value": 5.0, "unit": "µM"}, {"measurement": "Antimicrobial Activity MIC, E. f. b", "setting": "[5]", "value": ">100", "unit": "µM"}, {"measurement": "Antimicrobial Activity MIC, MRSA 6271", "setting": "MRSA 6271 (ATCC 43300)", "value": 18.7, "unit": "µM"}, {"measurement": "Antimicrobial Activity MIC, MRSA b", "setting": "[6]", "value": 32.0, "unit": "µM"}, {"measurement": "Antimicrobial Activity MIC, MRSA a", "setting": "[7]", "value": 13.3, "unit": "µM"}, {"measurement": "CFU/Implant, C. albicans c", "setting": "[1]", "value": "6.0 × 10^3 CFU/implant"}]}, {"compound": "Clc1ccccc1C(c1ccccc1)(c1ccccc1)n1ccnc1", "note": "[Clotrimazole, clotrimazole, reference compound]", "values": [{"measurement": "CFU/Implant, C. glabrata", "setting": "C. glabrata DSY565", "value": "1.2 × 10^6 CFU/implant"}]}, {"compound": "CC[C@H](C)[C@H](NC(=O)[C@H](CCCCN)NC(=O)[C@H](CCCCN)NC(=O)[C@H](CC(C)C)NC(=O)[C@H](CC(C)C)NC(=O)[C@H](CCCCN)NC(=O)[C@H](CCSC)NC(=O)[C@H](Cc1c[nH]c2ccccc12)NC(=O)[C@H](CCCCN)NC(=O)CCN)C(=O)N[C@@H](CC(C)C)C(=O)N[C@@H](CCCCN)C(N)=O", "note": "[XI] (H-[βAla]KWMKLLKKILK-NH2; N-terminus assumed)", "values": [{"measurement": "Antimicrobial Activity MIC, C. a.", "setting": "Candida albicans", "value": 11.3, "unit": "µM"}, {"measurement": "Haemolytic Activity LC50", "setting": "human erythrocytes", "value": 270, "unit": "µM"}, {"measurement": "Antimicrobial Activity MIC, S. e. b", "setting": "[2]", "value": 2.8, "unit": "µM"}, {"measurement": "Antimicrobial Activity MIC, P. a. a", "setting": "[3]", "value": 7.0, "unit": "µM"}, {"measurement": "Antimicrobial Activity MIC, P. a. 5482", "setting": "[4]", "value": 2.8, "unit": "µM"}, {"measurement": "Antimicrobial Activity MIC, E. f. b", "setting": "[5]", "value": 59.0, "unit": "µM"}, {"measurement": "Antimicrobial Activity MIC, MRSA 6271", "setting": "MRSA 6271 (ATCC 43300)", "value": 11.3, "unit": "µM"}, {"measurement": "Antimicrobial Activity MIC, MRSA b", "setting": "[6]", "value": 10.0, "unit": "µM"}, {"measurement": "Antimicrobial Activity MIC, MRSA a", "setting": "[7]", "value": 5.7, "unit": "µM"}, {"measurement": "Colony Forming Units (CFU)/Hole, P. a. 5482", "setting": "P. aeruginosa 5482", "value": "2.0 × 10^5 CFU/hole"}]}]}
